The source of these data is ChEMBL document CHEMBL3244067, “Synthesis and biological activity of carboxyl-terminus modified prostaglandin analogues” (J Med Chem, 1979).

As usually defined, the pKa is the negative logarithm of the acid dissociation constant. A low value points to a stronger acid or weaker base.

Series [1] in a line: Spasmogenic activity in nulliparous guinea pig uterine relative to PGE2. The format is functional, Cavia porcellus, Uterus.
Series [2] relates to Rattus norvegicus. Briefly: Antisecretory activity in rat assessed as inhibition of pentagastrin-stimulated gastric acid secretion at 10 ug/kg, iv relative to PGE2. Format: functional, Stomach.
Series [3] concerns Canis familiaris. Briefly: Hypotensive activity in iv dosed PGE2-treated Mongrel dog assessed as change in blood pressure of greater than 10 mm by mercury manometer relative to PGE2. The format is functional, Canis lupus familiaris.
The test system of series [4] is Mus musculus. The experiment in a line: Induction of diarrheal activity in conscious mouse at 0.1 to 3 mg/kg, iv administered for 30 mins relative to PGE2. Format: organism-based. Also on record: dose 0.1-3 mg/kg, route intravenous. Particulars: in vivo, 0.5 h.
Series [5] has as its system Cavia porcellus. The experiment in a line: Bronchodilator activity in Reed-Willet guinea pig assessed as inhibition of histamine-induced bronchoconstriction at 0.28 mM administered through nebulizer for 1 min relative to PGE2. Format: functional.
In series [6] the test system is Rattus norvegicus. The experiment in a line: Antisecretory activity in rat assessed as inhibition of pentagastrin-stimulated gastric acid secretion at 50 ug/kg, iv relative to PGE2. Format: functional, Stomach.
A short description of series [7]: Dissociation constant, pKa of the compound. Format: physicochemical.

Regarding `CCCCC(C)(C)[C@H](O)/C=C/[C@H]1[C@H](O)CC(=O)[C@@H]1C/C=C\CCCC(=O)O`, the “fold change (FC)” value worked out at 33 in series [1]; 360 in series [2]; 10 in series [3]; 5300 in series [4]; 41 in series [5].

On to `CCCCC[C@H](O)/C=C/[C@H]1[C@H](O)CC(=O)[C@@H]1C/C=C\CCCc1nnn[nH]1`, for which the “fold change (FC)” value in series [1] worked out at 100; in series [6], 35; in series [3], 10; in series [4], 50; in series [5], 65.

With `CCCCC[C@H](O)/C=C/[C@H]1[C@H](O)CC(=O)[C@@H]1C/C=C\CCCC(=O)NC(C)=O`, the “fold change (FC)” value in series [1] was 65; in series [6], 160; in series [3] it was 25; in series [4], 100; in series [5], 63.

On to `CCCCC[C@H](O)/C=C/[C@H]1[C@H](O)CC(=O)[C@@H]1C/C=C\CCCC(=O)NC(=O)c1ccccc1`, for which the “fold change (FC)” value is reported as 67 in series [1]; 40 in series [6]; 10 in series [3]; 83 in series [4]; 87 in series [5].

Turning to `CCCCC[C@H](O)/C=C/[C@H]1[C@H](O)CC(=O)[C@@H]1C/C=C\CCNC(=O)NC(C)=O`, the “fold change (FC)” value was below 0.1 in series [1]; 0 in series [6]; below 0.5 in series [3]; below 5 in series [4]; 25 in series [5].

Consider `CCCCC[C@H](O)/C=C/[C@H]1[C@H](O)CC(=O)[C@@H]1C/C=C\CCCC(=O)NC(=O)NCC`, for which the “fold change (FC)” value in series [1] is 0.2; in series [6], 0; in series [3], 0.5; in series [4], 27; in series [5] it was 28.

`CCCCC[C@H](O)/C=C/[C@H]1[C@H](O)CC(=O)[C@@H]1C/C=C\CCCC(=O)NS(C)(=O)=O`: the “fold change (FC)” value in series [1] is given as 7; in series [6], 12; in series [3] it was 1; in series [4], 10; in series [5], 47.

As to `CCCCC[C@H](O)/C=C/[C@H]1[C@H](O)CC(=O)[C@@H]1C/C=C\CCCC(=O)NS(=O)(=O)c1ccccc1`, the “fold change (FC)” value in series [1] was 3.1; in series [6] it was 20; in series [3], below 0.5; in series [4], 33; in series [5] it was 28.

On to `CCCCC[C@H](O)/C=C/[C@H]1[C@H](O)CC(=O)[C@@H]1C/C=C\CCCC(N)=O`, for which the “fold change (FC)” value worked out at 0.6 in series [1]; 0 in series [6]; 10 in series [3]; 10 in series [4]; 28 in series [5].

Consider `CCCCC[C@H](O)/C=C/[C@@H]1[C@@H](C/C=C\CCCc2nnn[nH]2)[C@@H](O)C[C@H]1O`, for which the “fold change (FC)” value in series [1] is given as 0.8; in series [3], 2.5; in series [4], below 5.

Take `CCCCC[C@H](O)/C=C/[C@@H]1[C@@H](C/C=C\CCCC(=O)NC(C)=O)[C@@H](O)C[C@H]1O`: the “fold change (FC)” value in series [1] is recorded as 30; in series [3], below 0.5; in series [4] it was 78.

As to `CCCCC[C@H](O)/C=C/[C@@H]1[C@@H](C/C=C\CCCC(=O)NC(=O)c2ccccc2)[C@@H](O)C[C@H]1O`, the entries for the “fold change (FC)” value in series [1], in series [3] and in series [4] were 0.9, 0.5 and below 5, respectively.

Take `CCCCC[C@H](O)/C=C/[C@@H]1[C@@H](C/C=C\CCNC(=O)NC(C)=O)[C@@H](O)C[C@H]1O`: the “fold change (FC)” value in series [1] is below 0.1; in series [3], below 0.5; in series [4], below 5.

As to `CCCCC[C@H](O)/C=C/[C@@H]1[C@@H](C/C=C\CCCC(=O)NC(=O)NCC)[C@@H](O)C[C@H]1O`, the results for the “fold change (FC)” value in series [1], in series [3] and in series [4] were below 0.1, below 0.5 and below 10, respectively.

With `CCCCC[C@H](O)/C=C/[C@@H]1[C@@H](C/C=C\CCCC(=O)NS(C)(=O)=O)[C@@H](O)C[C@H]1O`, the “fold change (FC)” value in series [1] is below 0.1; in series [3] it was below 0.5; in series [4], 25.

As to `CCCCC[C@H](O)/C=C/[C@@H]1[C@@H](C/C=C\CCCC(=O)NS(=O)(=O)c2ccccc2)[C@@H](O)C[C@H]1O`, the results for the “fold change (FC)” value in series [1], in series [3] and in series [4] were below 0.1, below 0.5 and below 10, respectively.

In the case of `CCCCC[C@H](O)/C=C/[C@@H]1[C@@H](C/C=C\CCCC(N)=O)[C@@H](O)C[C@H]1O`, the “fold change (FC)” value in series [1] is listed as below 0.1; in series [3], 2.5; in series [4] it was below 5.

`CCCCC(C)(C)[C@H](O)/C=C/[C@H]1[C@H](O)CC(=O)[C@@H]1C/C=C\CCCc1nnn[nH]1`: the “fold change (FC)” value in series [1] is 120; in series [2], 130; in series [3], 10; in series [4] it was 2550; in series [5], 76.

As to `CCCCC(C)(C)[C@H](O)/C=C/[C@H]1[C@H](O)CC(=O)[C@@H]1C/C=C\CCCC(=O)NC(C)=O`, the “fold change (FC)” value in series [1] is 100; in series [2] it was 330; in series [3], 2.5; in series [4], 1250; in series [5], 24.

For `CCCCC(C)(C)[C@H](O)/C=C/[C@H]1[C@H](O)CC(=O)[C@@H]1C/C=C\CCCC(=O)NS(C)(=O)=O`, the “fold change (FC)” value is given as 25 in series [1]; 220 in series [2]; below 0.5 in series [3]; 1350 in series [4]; 28 in series [5].

As to `c1ccc([P+](CCCCc2nnn[nH]2)(c2ccccc2)c2ccccc2)cc1`, the pKa in series [7] came out at 4.93.

Turning to `CC(=O)NC(=O)CCCC[P+](c1ccccc1)(c1ccccc1)c1ccccc1`, in series [7], the pKa worked out at 12.9.

Take `O=C(CCCC[P+](c1ccccc1)(c1ccccc1)c1ccccc1)NC(=O)c1ccccc1`: the pKa in series [7] turned out to be 12.9.

For the compound `CS(=O)(=O)NC(=O)CCCC[P+](c1ccccc1)(c1ccccc1)c1ccccc1`, the pKa in series [7] came out at 5.25.

For the compound `O=C(CCCC[P+](c1ccccc1)(c1ccccc1)c1ccccc1)NS(=O)(=O)c1ccccc1`, in series [7], the pKa came to 5.12.

In series [7], `NC(=O)CCCC[P+](c1ccccc1)(c1ccccc1)c1ccccc1` came in with a pKa of 15.1.

As to `O=C(O)CCCC[P+](c1ccccc1)(c1ccccc1)c1ccccc1`, the pKa in series [7] turned out to be 5.19.

Take `CCCCC[C@H](O)/C=C/[C@@H]1[C@@H](C/C=C\CCCC(=O)O)[C@@H](O)C[C@H]1O` [DINOPROST]: the results for the “fold change (FC)” value in series [1], in series [3] and in series [4] were 10, 10 and 6.5, respectively.
